Data published in paper PMC5323270 (SLAS discovery, 2016).
In brackets after ≈: the same amount, converted by molar mass. Where two headings read alike, the source gives them in different places.

Key:
[1] = system: M. tuberculosis H37Rv; test: microbe, parasite or virus in culture; type: cell-based; details: Mycobacterium tuberculosis, read-out: MIC90 LORA
[2] = system: M. tuberculosis H37Rv; test: microbe, parasite or virus in culture; type: cell-based; details: Mycobacterium tuberculosis, read-out: MIC90 MABA

`CO[C@H]1/C=C/O[C@@]2(C)Oc3c(C)c(O)c4c(O)c(c(/C=N/N5CCN(C)CC5)c(O)c4c3C2=O)NC(=O)/C(C)=C\C=C\[C@H](C)[C@H](O)[C@@H](C)[C@@H](O)[C@@H](C)[C@H](OC(C)=O)[C@@H]1C` [Rifampin (RMP), Rifampin] was tested, and the MIC90 [1] was 0.46 µM (≈ 0.379 µg/mL) and the MIC90 [2] was 0.13 µM (≈ 0.107 µg/mL).
